Data as given in the supplement of paper PMC10307832.

Compound: Cc1cc(Nc2cc(N3CCN(C)CC3)nc(Sc3ccc(NC(=O)C4CC4)cc3)n2)n[nH]1 [Tozasertib] + O=C(CCCCCCC(=O)Nc1ccccc1)NO [Vorinostat] (partner 1 µM)
Experiment: relative viability (nuclei count vs DMSO), 5 days (fraction); higher = more cells survive
In short: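 Relative viability was taken as the ratio of nuclei in treated wells to nuclei in vehicle wells. Lung cancer cell lines in 1536-well plates received compounds by pin tool one day after seeding, either one drug alone or a fixed anchor-drug dose plus five library-drug doses (not always all listed) in √10 steps. Nuclei were counted on 4× images after 5 days of treatment, and values are medians of duplicate plates.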

Row | Cell Line | relative viability (first compound 0.004 µM) | relative viability (first compound 0.01265 µM) | relative viability (first compound 0.04 µM) | relative viability (first compound 0.1265 µM)
1 | NCI-H1734 | 0.711 | 0.741 | 0.649 | 0.245
2 | 201T | 0.939 | 0.902 | 0.968 | 0.946
3 | LK-2 | 0.287 | 0.321 | 0.28 | 0.197
4 | HCC-44 | 1.09 | 1 | 1.04 | 0.901
5 | NCI-H1355 | 0.594 | 0.571 | 0.669 | 0.516
6 | PC-3 [JPC-3] | 0.616 | 0.51 | 0.71 | 0.566
7 | UMC-11 | 0.408 | 0.327 | 0.291 | 0.16
8 | NCI-H1395 | 0.944 | 0.641 | 0.643 | 0.353
9 | SK-LU-1 | 0.893 | 0.788 | 0.82 | 0.34
10 | NCI-H2405 | 1.16 | 0.809 | 1.02 | 0.594
11 | NCI-H1915 | 0.505 | 0.564 | 0.512 | 0.439
12 | NCI-H1651 | 0.603 | 0.56 | – | 0.361
13 | HCC-827 | 0.87 | 0.835 | 0.89 | 0.584
14 | HCC-78 | 0.445 | 0.386 | 0.45 | 0.373
15 | CAL-12T | 0.694 | 0.677 | 0.751 | 0.305
16 | HCC-366 | 0.371 | 0.3 | 0.198 | 0.0431
17 | EKVX | 0.665 | 0.543 | 0.637 | 0.613
18 | NCI-H1793 | 0.785 | 0.654 | 0.931 | 0.267
19 | NCI-H2023 | 0.547 | 0.674 | 0.518 | 0.16
20 | HCC-15 | 0.86 | 0.735 | 0.923 | –
21 | LCLC-103H | 0.842 | 0.863 | 0.743 | 0.544
22 | NCI-H2228 | 0.668 | 0.402 | 0.585 | 0.49
23 | NCI-H520 | 0.814 | 0.747 | 0.575 | 0.224

Row | Cell Line | relative viability (first compound 0.004 µM) | relative viability (first compound 0.01265 µM) | relative viability (first compound 0.04 µM) | relative viability (first compound 0.1265 µM)
24 | COR-L 105 | 0.998 | – | 0.936 | 0.512
25 | SW 1573 | 0.624 | 0.599 | 0.509 | 0.192
26 | NCI-H647 | 0.729 | 0.377 | 0.384 | 0.172
27 | LOU-NH91 | 0.761 | 0.889 | 0.983 | 0.707
28 | NCI-H2009 | 0.772 | 0.696 | 0.735 | 0.578
29 | LC-2-ad | 0.762 | 0.631 | 0.613 | 0.272
30 | ABC-1 | 1.35 | 1 | 0.767 | 0.306
31 | NCI-H358 | 0.626 | 0.648 | 0.361 | 0.15
32 | NCI-H1975 | 0.706 | 0.706 | 0.72 | 0.583
33 | NCI-H2347 | 0.586 | 0.643 | 0.57 | 0.664
34 | NCI-H838 | 0.716 | 0.713 | 0.502 | 0.235
35 | NCI-H2342 | 0.77 | 0.78 | 0.782 | 0.597
36 | H3255 | 0.86 | 0.676 | – | 0.712
37 | LXF-289 | 0.731 | 0.702 | 0.533 | 0.252
38 | A-427 | 0.858 | 0.817 | 0.804 | 0.489
39 | LCLC-97TM1 | 0.69 | 0.639 | 0.644 | 0.153
40 | HOP-62 | 0.621 | 0.483 | 0.628 | 0.462
41 | HARA | 0.674 | 0.427 | 0.507 | 0.419
42 | NCI-H1993 | 0.754 | 0.824 | 1.11 | 0.408
43 | NCI-H460 | 0.83 | 0.769 | 0.912 | 0.163
44 | BEN | 0.551 | – | 0.59 | 0.398
45 | NCI-H727 | 1.12 | 1.12 | 1.13 | 0.82
46 | NCI-H1650 | 0.517 | 0.462 | 0.68 | 0.391

Row | Cell Line | relative viability (first compound 0.004 µM) | relative viability (first compound 0.01265 µM) | relative viability (first compound 0.04 µM) | relative viability (first compound 0.1265 µM)
47 | NCI-H2170 | 0.764 | 0.887 | 0.69 | 0.427
48 | EPLC-272H | 0.521 | – | 0.318 | 0.287
49 | NCI-H2087 | 0.477 | 0.537 | 0.544 | 0.382
50 | NCI-H1666 | 0.988 | 1.06 | 1 | 0.961
51 | NCI-H2126 | 0.797 | 0.808 | 0.915 | 0.781
52 | NCI-H322M | 0.91 | 0.828 | 0.984 | 0.588
53 | NCI-H1944 | 0.557 | 0.519 | 0.427 | 0.204
54 | NCI-H1755 | 0.749 | 0.782 | 0.744 | 0.675
55 | PC-14 | – | 0.741 | 0.879 | 0.121
56 | ChaGo-K-1 | 0.75 | 0.683 | 0.714 | 0.265
57 | NCI-H2085 | 0.797 | 0.714 | – | 0.603
58 | SK-MES-1 | 1 | 1.1 | 1.19 | 0.525
59 | LU99A | 0.544 | 0.423 | 0.428 | 0.339
60 | NCI-H661 | 0.912 | 0.806 | 0.549 | 0.312
61 | EMC-BAC-2 | 0.438 | 0.233 | 0.242 | 0.15
62 | NCI-H3122 | 0.852 | 1.07 | 0.869 | 0.485
63 | RERF-LC-KJ | – | 0.519 | 0.654 | 0.478
64 | NCI-H650 | 0.448 | 0.4 | 0.568 | 0.389
65 | NCI-H596 | 0.655 | 0.538 | 0.72 | 0.451
66 | NCI-H441 | 0.852 | 0.823 | 0.845 | 0.766
67 | COR-L23 | 0.522 | 0.403 | 0.393 | 0.198
68 | NCI-H1437 | 0.851 | 0.792 | 0.769 | 0.481
69 | NCI-H23 | – | 0.693 | 0.599 | 0.168
